Legend:
supragingival plaque = assay: Clinical trial: plaque index (Turesky modification of the Quigley-Hein Index); format: in vivo, human; conditions: CPP-ACP gum (18.8 or 56.4 mg), 14 days, vs no gum chewing; FIG. 1
Description: Following the completion of the examination and supragingival plaque collection, participants received a supragingival scaling, clean and prophylaxis of all their teeth. At the completion of the last examination for leg 3, each participant received a professional fluoride treatment. Supragingival plaque was assessed using the Turesky modification of the Quigley-Hein Index (Turesky et al 1970 J Periodontol 41(1):41-43). This index is recognised as a reliable estimate of the tooth area covered by plaque and is frequently used for evaluating anti-plaque agents. The plaque index was obtained by adding the scores for each tooth and dividing by the number of surfaces examined. Plaque scores associated with unrestored labial, buccal and lingual surfaces of all teeth, except third molars were assessed. Each surface was assigned a score from 0 to 5.

Leptotrichia buccalis = assay: Clinical trial: plaque microbial analysis, Leptotrichia buccalis; format: in vivo; conditions: 18.8 mg CPP-ACP sugar-free gum, 20 min six times per day, 14 days, vs no gum chewing; supragingival plaque
Description: Following the completion of the examination and supragingival plaque collection, participants received a supragingival scaling, clean and prophylaxis of all their teeth. At the completion of the last examination for leg 3, each participant received a professional fluoride treatment.
Participants had all supragingival plaque collected from the buccal surfaces of their maxillary molars (teeth 17, 16, 26 & 27) with a sterile scaling instrument. The plaque samples from each tooth were placed in separate sterile tubes, to give four samples per participant.
Genomic DNA was extracted from the plaque using a combination of mechanical disruption of the cells via a Precellys homogeniser and the chemical extraction and purification of the genomic DNA via the PowerLyzer PowerSoil DNA Isolation Kit (MoBio). Quantitation of the extracted DNA was achieved using a Qubit dsDNA High Sensitivity Assay kit (ThermoFisher), before 5 ng DNA was used as template in a PCR reaction that amplified the V4 variable region of the 16S ribosomal RNA gene and individually barcoded the PCR product from each sample. The barcoded DNA was then sequenced using an Ion Torrent Personal Genome machine and Torrent Suite™ Software (ThermoFisher).
Analysis of the resulting sequence of the 16S ribosomal RNA gene enabled identification of the bacterial population present in each sample, down to the species level. […]

Question: For “Casein phosphopeptide-amorphous calcium phosphate [CPP-ACP]”, which plaque index (supragingival plaque) is on record?
Answer: did not produce a significant change

Question: What about the “% decrease in relative abundance, Leptotrichia buccalis” value (Leptotrichia buccalis) of the same substance?
Answer: 76% (p < 0.05)

— patent publication US11717536B2, “Treatment for periodontitis” (THE UNIVERSITY OF MELBOURNE, priority 2017, dated 2023)
